Experimental data as given in the supplement of paper PMC4862054.

Legend:
Conditions in all cases: incubation time: 72 h
[1] = system: Hs578T; assay: drug sensitivity score (DSS), CellTox Green (DSS (AUC-based score)); higher = stronger drug effect (viability inhibition or cytotoxicity); extreme values may be limits of the assay
Outline: (§1)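 The area under the fitted dose-response curve was used to calculate the drug sensitivity score. Cells from breast cancer lines were incubated for 72 h in 384-well plates with compound at 5 concentrations spaced 10-fold over a 10,000-fold range specific to each compound. Plates were read for CellTox Green and then CellTiter-Glo, and normalised to 0.1 % DMSO and a positive kill control.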

[2] = system: MDA-MB-231; assay: as above
Outline: as §1

[3] = system: HCC1937; assay: as above
Outline: as §1

[4] = system: HDQ-P1; assay: normalised viability (% of control), CellTiter-Blue; higher = more viable cells (about 100 = DMSO control)
Outline: (§2)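 Each value is normalised viability at a single listed concentration of the series. Breast cancer cell lines in 384-well plates were incubated 72 h with compound and read by CellTiter-Blue fluorescence at 560/590 nm, with vehicle set to 100 and a positive kill control to 0 on every plate.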

[5] = system: Hs578T; assay: as above
Outline: as §2

[6] = system: BT-549; assay: as above
Outline: as §2

[7] = system: HCC1143; assay: as above
Outline: as §2

[8] = system: DU-4475; assay: as above
Outline: as §2

[9] = system: MDA-MB-436; assay: as above
Outline: as §2

[10] = system: MDA-MB-231; assay: as above
Outline: as §2

[11] = system: CAL-51; assay: as above
Outline: as §2

[12] = system: BT-474; assay: as above
Outline: as §2

[13] = system: CAL-85-1; assay: as above
Outline: as §2

[14] = system: MDA-MB-453; assay: as above
Outline: as §2

[15] = system: MDA-MB-468; assay: as above
Outline: as §2

[16] = system: HCC1937; assay: as above
Outline: as §2

[17] = system: HCC1599; assay: as above
Outline: as §2

[18] = system: SK-BR-3; assay: as above
Outline: as §2

[19] = system: MFM-223; assay: as above
Outline: as §2

Cc1c2oc3c(C)ccc(C(=O)N[C@@H]4C(=O)N[C@H](C(C)C)C(=O)N5CCC[C@H]5C(=O)N(C)CC(=O)N(C)[C@@H](C(C)C)C(=O)O[C@@H]4C)c3nc-2c(C(=O)N[C@@H]2C(=O)N[C@H](C(C)C)C(=O)N3CCC[C@H]3C(=O)N(C)CC(=O)N(C)[C@@H](C(C)C)C(=O)O[C@@H]2C)c(N)c1=O [Dactinomycin]
Conditions | drug sensitivity score
[1] | 12.5
[2] | 20.5
[3] | 0

normalised viability [%]
Conditions | 0.3 nM | 1 nM | 3 nM | 10 nM | 100 nM | 1000 nM
[4] | 85.1 | – | 45.2 | 35.9 | – | –
[5] | – | 53.8 | – | – | 3.41 | 1.67
[6] | – | 56.6 | – | – | 4.94 | 4.47
[7] | – | 50.3 | – | – | 17.6 | 16
[8] | 89.3 | – | 2.85 | 0.2 | – | –
[9] | – | 48.8 | – | – | 13.1 | 9.7
[10] | – | 53.3 | – | – | 7.55 | 5.39
[11] | 99.7 | – | 50 | 17.8 | – | –
[12] | – | 73.3 | – | – | 25.2 | 24.1
[13] | 79.1 | – | 43.6 | 40.8 | – | –
[14] | 85.1 | – | 42.9 | 40.5 | – | –
[15] | – | 60.3 | – | – | 3.39 | 4.33
[16] | – | 65.8 | – | – | 21.8 | 18.4
[17] | – | 87.7 | – | – | 18.1 | 12.8
[18] | – | 76 | – | – | 3.88 | 4.85
[19] | – | 86.2 | – | – | 8.99 | 10.4

COc1cccc2c1C(=O)c1c(O)c3c(c(O)c1C2=O)C[C@@](O)(C(=O)CO)C[C@@H]3O[C@H]1C[C@H](N)[C@H](O)[C@H](C)O1 [Doxorubicin]
Conditions | drug sensitivity score
[1] | 0
[2] | 0
[3] | 0

normalised viability [%]
Conditions | 0.3 nM | 1 nM | 3 nM | 10 nM | 100 nM | 1000 nM
[4] | 104 | – | 96.8 | 93 | – | –
[5] | – | 115 | – | – | 71.3 | 6.05
[6] | – | 114 | – | – | 76.5 | 5.36
[7] | – | 101 | – | – | 60.2 | 32.2
[8] | 93.8 | – | 91.6 | 64 | – | –
[9] | – | 90.6 | – | – | 64.5 | 18.2
[10] | – | 85.1 | – | – | 64.4 | 25.8
[11] | 102 | – | 100 | 96.2 | – | –
[12] | – | 97.3 | – | – | 84.7 | 34.1
[13] | 90 | – | 92.3 | 90.4 | – | –
[14] | 105 | – | 102 | 101 | – | –
[15] | – | 99.7 | – | – | 65.9 | 4.32
[16] | – | 86.6 | – | – | 37 | 22.2
[17] | – | 93 | – | – | 74.8 | 59
[18] | – | 87.9 | – | – | 41.3 | 8.28
[19] | – | 91.8 | – | – | 98 | 21.4

Cc1ccc(F)c(NC(=O)Nc2ccc(-c3cccc4[nH]nc(N)c34)cc2)c1 [Linifanib]
Conditions | drug sensitivity score
[1] | 0
[2] | 0
[3] | 0

normalised viability [%]
Conditions | 0.3 nM | 1 nM | 3 nM | 10 nM | 100 nM | 1000 nM
[4] | 107 | – | 111 | 103 | – | –
[5] | – | 114 | – | – | 101 | 91.3
[6] | – | 91.5 | – | – | 96 | 97.5
[7] | – | 112 | – | – | 89 | 93.9
[8] | 103 | – | 93.6 | 108 | – | –
[9] | – | 108 | – | – | 110 | 120
[10] | – | 115 | – | – | 101 | 109
[11] | 106 | – | 105 | 107 | – | –
[12] | – | 113 | – | – | 108 | 123
[13] | 93.9 | – | 87.9 | 98.8 | – | –
[14] | 111 | – | 111 | 104 | – | –
[15] | – | 182 | – | – | 111 | 104
[16] | – | 147 | – | – | 93.6 | 111
[17] | – | 109 | – | – | 108 | 109
[18] | – | 117 | – | – | 112 | 123
[19] | – | 101 | – | – | 96.6 | 98.4

S=c1[nH]cnc2nc[nH]c12 [Mercaptopurine]
Conditions | drug sensitivity score
[1] | 0
[2] | 0
[3] | 0

normalised viability [%]
Conditions | 3 nM | 10 nM | 30 nM | 100 nM | 1000 nM | 10000 nM
[4] | 123 | – | 110 | 100 | – | –
[5] | – | 118 | – | – | 123 | 86.7
[6] | – | 115 | – | – | 105 | 95.6
[7] | – | 85.8 | – | – | 95.7 | 88.5
[8] | 103 | – | 87.6 | 87.8 | – | –
[9] | – | 89.8 | – | – | 74.1 | 83
[10] | – | 101 | – | – | 95.9 | 88.7
[11] | 105 | – | 101 | 106 | – | –
[12] | – | 116 | – | – | 108 | 112
[13] | 101 | – | 91.8 | 103 | – | –
[14] | 116 | – | 98.1 | 110 | – | –
[15] | – | 108 | – | – | 64.9 | 69
[16] | – | 87.5 | – | – | 86.9 | 48.1
[17] | – | 103 | – | – | 96.3 | 106
[18] | – | 107 | – | – | 95.6 | 63.5
[19] | – | 101 | – | – | 94 | 103
